The record followed here is patent publication US9216968B2, “Heterocyclic derivative and pharmaceutical drug” (NIPPON SHINYAKU CO., LTD., priority 2011, dated 2015).

Counter-ions that a name gives are not always drawn.

The target of the first assay is human mPGES-1 (Homo sapiens (Human), UniProt O14684). The assay can be described thus: mPGES-1 inhibiting activity (microsome fractions, PGE2 by HTRF). It is filed as biochemical. The conditions noted are these: microsomes from CHO-K1 cells transfected with human mPGES-1; PGH2 1 μM, 4° C., 60 seconds; read-out: mPGES-1 Inhibition IC50. The protocol: mPGES-1 microsome fractions were prepared from CHO-K1 cells transiently transfected with plasmid encoding the human mPGES-1cDNA. Microsomes were diluted with potassium phosphate buffer containing reduced glutathione (pH7.4), and DMSO containing test compound or DMSO alone was added (such that DMSO final concentration would be 1% in each) and incubated at 4° C. for 20 minutes. Then, the enzymatic reactions were initiated by the addition of PGH2 substrate (final concentration 1 μM) and incubated at 4° C. for 60 seconds. The reaction was terminated by the addition of a citrate solution (final citrate concentration 50 mM) containing ferric chloride (final concentration 1 mg/mL). PGE2 production in the enzyme reaction aliquot was measured using HTRF kit (Cisbio International, catalogue #62P2APEC). The solution free of test compound was used as positive control, and the solution free of test compound and microsome sample was used as negative control. 100% activity was defined as PGE2 production in the positive control minus PGE2 production in negative control. IC50 value was calculated by standard method.
Sequence of human mPGES-1 (O14684 whole entry): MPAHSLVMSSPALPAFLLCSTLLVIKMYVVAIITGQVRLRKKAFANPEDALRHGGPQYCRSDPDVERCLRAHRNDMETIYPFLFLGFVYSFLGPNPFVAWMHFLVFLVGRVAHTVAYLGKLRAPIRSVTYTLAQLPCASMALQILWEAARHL
A general note: TR-FRET usually uses a lanthanide donor and a delayed reading to cut background.
In general, IC50 refers to the concentration that inhibits the measured activity by half. Turning to `Cc1nc2c(C(=O)NC3CCC3)cc(NC(=O)c3ccccc3C(F)(F)F)cc2[nH]1` [Example 16, N-Cyclobutyl-2-methyl-6-({[2-(trifluoromethyl)phenyl]carbonyl}amino)-1H-benzimidazole-4-carboxamide], the 50% inhibitory concentration (IC50) was 63.9 nM.
Consider `COCc1nc2c(C(=O)Nc3ccc4c(c3)S(=O)(=O)C=C4)cc(NC(=O)c3ccccc3C(F)(F)F)cc2[nH]1` [Example 222, N-(1,1-Dioxide-1-benzothiophen-6-yl)-2-(methoxymethyl)-6-({[2-(trifluoromethyl)phenyl]carbonyl}amino)-1H-benzimidazole-4-carboxamide hydrochloride], for which the concentration for half-maximal inhibition (IC50) came to 661 nM.
The same measure, in the same setting: for `O=C(Nc1cc(C(=O)NC2CCCCC2)c2[nH]ncc2c1)c1ccccc1C(F)(F)F` [Example 9, N-Cyclohexyl-5-({[2-(trifluoromethyl)phenyl]carbonyl}amino)-1H-indazole-7-carboxamide] the value was 452 nM; for `Cc1c(Cl)cccc1NC(=O)c1cc(NC(=O)c2ccccc2C(F)(F)F)cc2[nH]c(NCC3(C)COC3)nc12` [Example 159, N-(3-Chloro-2-methylphenyl)-2-{[(3-methyloxetan-3-yl)methyl]amino}-6-({[2-(trifluoromethyl)phenyl]carbonyl}amino)-1H-benzimidazole-4-carboxamide hydrochloride], 403 nM.
Same read-out and setting: the result for `Cn1cnc2c(C(=O)NC3CCCCC3)cc(NC(=O)c3ccccc3C(F)(F)F)cc21` [Example 47, N-Cyclohexyl-1-methyl-6-({[2-(trifluoromethyl)phenyl]carbonyl}amino)-1H-benzimidazole-4-carboxamide] reads 270 nM; that for `O=C(Nc1cc(C(=O)NCC2(O)CCCCC2)c2nc[nH]c2c1)c1ccccc1C(F)(F)F` [Example 5, N-[(1-Hydroxycyclohexyl)methyl]-6-({[2-(trifluoromethyl)phenyl]carbonyl}amino)-1H-benzimidazole-4-carboxamide], 453 nM.
Still for that read-out and setting: for `COCc1nc2c(C(=O)Nc3ccsc3)cc(NC(=O)c3ccccc3C(F)(F)F)cc2[nH]1` [Example 220, 2-(Methoxymethyl)-N-(thiophen-3-yl)-6-({[2-(trifluoromethyl)phenyl]carbonyl}amino)-1H-benzimidazole-4-carboxamide hydrochloride] the value was 8.6 nM; for `COCc1nc2c(C(=O)Nc3nc4ccccc4s3)cc(NC(=O)c3ccccc3C(F)(F)F)cc2[nH]1` [Example 225, N-(1,3-Benzothiazol-2-yl)-2-(methoxymethyl)-6-({[2-(trifluoromethyl)phenyl]carbonyl}amino)-1H-benzimidazole-4-carboxamide hydrochloride], 15.6 nM; for `COCc1nc2c(C(=O)Nc3cccc(Cl)c3C)cc(NC(=O)c3cc(CCC(C)(C)O)ccc3Cl)cc2[nH]1` [Example 119, 6-({[2-Chloro-5-(3-hydroxy-3-methylbutyl)phenyl]carbonyl}amino)-N-(3-chloro-2-methylphenyl)-2-(methoxymethyl)-1H-benzimidazole-4-carboxamide hydrochloride], 208 nM.
Turning to `COCc1nc2c(C(=O)NCc3cccs3)cc(NC(=O)c3ccccc3C(F)(F)F)cc2[nH]1` [Example 223, 2-(Methoxymethyl)-N-(thiophen-2-ylmethyl)-6-({[2-(trifluoromethyl)phenyl]carbonyl}amino)-1H-benzimidazole-4-carboxamide hydrochloride], the IC50 came to 68.2 nM.
Same read-out and setting: for `COCc1nc2c(C(=O)Nc3cccc(Cl)c3C)cc(NC(=O)c3cc(OCC(F)F)ccc3Cl)cc2[nH]1` [Example 248, 6-({[2-Chloro-5-(2,2-difluoroethoxy)phenyl]carbonyl}amino)-N-(3-chloro-2-methylphenyl)-2-(methoxymethyl)-1H-benzimidazole-4-carboxamide hydrochloride] the value was 201 nM.
On the same count and under the same terms, the result for `COCc1nc2c(C(=O)Nc3cccc(Cl)c3C)cc(NC(=O)c3cc(OCCCC(F)(F)F)ccc3Cl)cc2[nH]1` [Example 249, N-(3-Chloro-2-methylphenyl)-6-({[2-chloro-5-(4,4,4-trifluorobutoxy)phenyl]carbonyl}amino)-2-(methoxymethyl)-1H-benzimidazole-4-carboxamide hydrochloride] reads 404 nM.
Consider `COCc1nc2c(C(=O)Nc3cccc(Cl)c3C)cc(NC(=O)c3cc(C#CCOC(C)(C)C)ccc3Cl)cc2[nH]1` [Example 117, 6-({[5-(3-tert-Butoxy-1-propynyl)-2-chlorophenyl]carbonyl}amino)-N-(3-chloro-2-methylphenyl)-2-(methoxymethyl)-1H-benz imidazole-4-carboxamide hydrochloride], for which the IC50 was 584 nM.
For `COCc1nc2c(C(=O)Nc3ccc4[nH]ccc4c3)cc(NC(=O)c3ccccc3C(F)(F)F)cc2[nH]1` [Example 224, N-(1H-Indol-5-yl)-2-(methoxymethyl)-6-({[2-(trifluoromethyl)phenyl]carbonyl}amino)-1H-benzimidazole-4-carboxamide], the IC50 amounted to 26.5 nM.
On the same count and under the same terms, the result for `COCc1nc2c(C(=O)Nc3cccc4nsnc34)cc(NC(=O)c3ccccc3C(F)(F)F)cc2[nH]1` [Example 221, N-(2,1,3-Benzothiadiazol-4-yl)-2-(methoxymethyl)-6-({[2-(trifluoromethyl)phenyl]carbonyl}amino)-1H-benzimidazole-4-carboxamide hydrochloride] reads 2.2 nM.
Same read-out and setting: for `COCc1nc2c(C(=O)NCc3ccccc3Cl)cc(NC(=O)c3ccccc3C(F)(F)F)cc2n1C` [Example 91, N-(2-Chlorobenzyl)-2-(methoxymethyl)-1-methyl-6-({[2-(trifluoromethyl)phenyl]carbonyl}amino)-1H-benzimidazole-4-carboxamide] the value was 327 nM; for `COCc1nc2c(C(=O)Nc3cccnc3)cc(NC(=O)c3ccccc3C(F)(F)F)cc2[nH]1` [Example 216, 2-(Methoxymethyl)-N-(pyridin-3-yl)-6-({[2-(trifluoromethyl)phenyl]carbonyl}amino)-1H-benzimidazole-4-carboxamide hydrochloride], 204 nM; for `COCc1nc2c(C(=O)NCC(C)(C)C)cc(NC(=O)c3ccccc3C(F)(F)F)cc2[nH]1` [Example 226, N-(2,2-Dimethylpropyl)-2-(methoxymethyl)-6-({[2-(trifluoromethyl)phenyl]carbonyl}amino)-1H-benzimidazole-4-carboxamide hydrochloride], 26.9 nM.
As for `O=C(Nc1cc(C(=O)NCc2ccccc2C(F)(F)F)c2[nH]ncc2c1)c1ccccc1C(F)(F)F` [Example 10, N-[2-(Trifluoromethyl)benzyl]-5-({[2-(trifluoromethyl)phenyl]carbonyl}amino)-1H-indazole-7-carboxamide], the IC50 was determined as 333 nM.
Still for that read-out and setting: for `COCc1nc2c(C(=O)Nc3nc4cc(Cl)ccc4o3)cc(NC(=O)c3ccccc3C(F)(F)F)cc2[nH]1` [Example 228, N-(5-Chloro-1,3-benzoxazol-2-yl)-2-(methoxymethyl)-6-({[2-(trifluoromethyl)phenyl]carbonyl}amino)-1H-benzimidazole-4-carboxamide hydrochloride] the value was 1.7 nM.
Still for that read-out and setting: for `O=C(Nc1cc2c(c(C(=O)NCc3ccccc3C(F)(F)F)c1)OCC2)c1ccccc1C(F)(F)F` [Example 6, N-[2-(Trifluoromethyl)benzyl]-5-({[2-(trifluoromethyl)phenyl]carbonyl}amino)-2,3-dihydro-1-benzofuran-7-carboxamide] the value was 27.4 nM.
Turning to `COCc1nc2c(C(=O)Nc3cccs3)cc(NC(=O)c3ccccc3C(F)(F)F)cc2[nH]1` [Example 227, 2-(Methoxymethyl)-N-(thiophen-2-yl)-6-({[2-(trifluoromethyl)phenyl]carbonyl}amino)-1H-benzimidazole-4-carboxamide hydrochloride], the IC50 is 0.1 nM.
On the same count and under the same terms, for `COCc1nc2c(C(=O)Nc3cccc(Cl)c3C)cc(NC(=O)c3ccc(C(F)(F)F)cc3C(F)(F)F)cc2[nH]1` [Example 111, 6-({[2,4-Bis(trifluoromethyl)phenyl]carbonyl}amino)-N-(3-chloro-2-methylphenyl)-2-(methoxymethyl)-1H-benzimidazole-4-carboxamide hydrochloride] the value was 765 nM.

The test system of a further assay is A549 cells. Put plainly: Inhibition of PGE2 production in A549 cell (IL-1β stimulated). It is filed as cell-based, human. The conditions noted are these: Homo sapiens, A549, 24 h, IL-1β 5 ng/well, PGE2 in culture medium. The protocol:
Human A549 cells were seeded onto a 96-well plate at 2×10^4 cells/100 μL per well and allowed to incubate overnight. After removing the culture medium and washing with phosphate buffered saline, the culture medium was replaced by RPMI culture medium with 3% FBS containing a DMSO solution containing test compound or DMSO alone (such that DMSO final concentration would be […] in each). After incubation for 60 minutes, IL-1β (5 ng/well) was added and incubated at 37° C. for 24 hours. Then, PGE2 in the culture medium was measured using HTRF kit (Cisbio International, catalogue #62P2APEC), and PGF2α in the culture medium was measured using EIA kit (Cayman Chemical Company, catalogue #516011). The solution free of test compound was used as positive control, and the solution free of test compound and IL-1β was used as negative control. 100% activity was defined as PGE2 and PGF2α production in the positive control minus PGE2 and PGF2α production in the negative control. IC50 value was calculated by standard method.
Consider `Cc1nc2c(C(=O)NC3CCC3)cc(NC(=O)c3ccccc3C(F)(F)F)cc2[nH]1` [Example 16, N-Cyclobutyl-2-methyl-6-({[2-(trifluoromethyl)phenyl]carbonyl}amino)-1H-benzimidazole-4-carboxamide], for which the midpoint of inhibition, the IC50, lay at 1300 nM.
The same measure, in the same setting: for `O=C(Nc1cc(C(=O)NCc2ccccc2C(F)(F)F)c2nc[nH]c2c1)c1ccccc1C(F)(F)F` [Example 1, N-[2-(Trifluoromethyl)benzyl]-6-({[2-(trifluoromethyl)phenyl]carbonyl}amino)-1H-benzimidazol-4-carboxamide] the value was 88.9 nM.
